Key:
[1] = test system: beet armyworm (BAW; Spodoptera exigua: Lepidoptera); experiment: 96-well microtiter plate-based high throughput (HTS) diet bioassay on beet armyworm (BAW HTS); assay type: in vivo; conditions: for BAW HTS: BAW eggs, 12 μg test compound per well, mortality at 6 d post-treatment, mortality class; for pest or weed control at 12 µg/well, 12 µg/well: Spodoptera exigua, 144 h, read-out: BAW HTS
How it was run: (§1)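 Two diet formats. HTS: eggs on 96-well diet overlaid with 12 μg compound, held 6 d at 29° C in dark, mean mortality of six replicates. BAW 50: three to five second-instar larvae per well on diet dosed at 50 μg/cm^2, held six days at 25° C under 14:10 light-dark, mortality averaged across eight wells.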

[2] = test system: beet armyworm (BAW; Spodoptera exigua: Lepidoptera); experiment: 128-well diet tray assay on beet armyworm (BAW 50); assay type: in vivo; conditions: for BAW 50 ug/cm2: 128-well diet tray assay, 50 μg/cm^2 of test compound on diet, second instar BAW larvae, mortality class; for pest or weed control at 50 µg/cm2, 50 µg/cm2: Spodoptera exigua, 144 h, read-out: BAW 50 ug/cm2
How it was run: as §1

[3] = 96-well microtiter plate HTS diet assay

SMILES | BAW HTS ([1]; 96-well HTS diet assay) | BAW HTS [1, 3] | BAW 50 ug/cm2 [2] | pest or weed control at 12 µg/well, 12 µg/well [1] | pest or weed control at 50 µg/cm2, 50 µg/cm2 [2]
CO[C@@H]1[C@@H](OC)[C@H](C)O[C@@H](OC(=O)Nc2ccc(-n3cnc(-c4ccc(C(F)(F)F)cc4)n3)cc2)[C@@H]1OC [Compound 229] | A (the compound was tested and at least 50 percent mortality was observed) | A (the compound was tested and at least 50 percent mortality was observed) | A (the compound was tested and at least 50 percent mortality was observed) |  | 
CO[C@@H]1[C@@H](OC)[C@H](C)O[C@@H](OC(=O)Nc2ccc(-c3nnc(-c4ccc(Cl)cc4Cl)o3)cc2)[C@@H]1OC [Compound 230] | B (either (1) the compound was tested and less than 50 percent mortality was observed or (2) the compound was not tested) | B (either (1) the compound was tested and less than 50 percent mortality was observed or (2) the compound was not tested) | A (the compound was tested and at least 50 percent mortality was observed) |  | 
CO[C@@H]1[C@@H](OC)[C@H](C)O[C@@H](OC(=O)Nc2ccc(-c3ccnc(-c4ccc(C(F)(F)F)cc4)n3)cc2)[C@@H]1OC [Compound 232, {4-[2-(4-trifluoromethylphenyl)-pyrimidin-4-yl]-phenyl}-carbamic acid (2S,3R,4R,5S,6S)-3,4,5-trimethoxy-6-methyl-tetrahydropyran-2-yl ester] |  | A (the compound was tested and at least 50 percent mortality was observed) | A (the compound was tested and at least 50 percent mortality was observed) | > 50% | > 50%
CO[C@@H]1[C@@H](OC)[C@H](C)O[C@@H](OC(=O)Nc2ccc(-c3cc(C(F)(F)C(F)(F)C(F)(F)F)nc(-c4ccc(C(F)(F)F)cc4)n3)cc2)[C@@H]1OC [Compound 233] | B (either (1) the compound was tested and less than 50 percent mortality was observed or (2) the compound was not tested) | B (either (1) the compound was tested and less than 50 percent mortality was observed or (2) the compound was not tested) | A (the compound was tested and at least 50 percent mortality was observed) |  | 
COc1ccc(-c2nccc(-c3ccc(NC(=O)O[C@@H]4O[C@@H](C)[C@H](OC)[C@@H](OC)[C@H]4OC)cc3)n2)cc1 [Compound 234, {4-[2-(4-methoxyphenyl)-pyrimidin-4-yl]-phenyl}-carbamic acid (2S,3R,4R,5S,6S)-3,4,5-trimethoxy-6-methyl-tetrahydropyran-2-yl ester] |  | B (either (1) the compound was tested and less than 50 percent mortality was observed or (2) the compound was not tested) | B (either (1) the compound was tested and less than 50 percent mortality was observed or (2) the compound was not tested) | < 50% | < 50%
CO[C@@H]1[C@@H](OC)[C@H](C)O[C@@H](OC(=O)Nc2ccc(-c3cc(C(F)(F)F)nc(-c4ccc(C(F)(F)F)cc4)n3)cc2)[C@@H]1OC [Compound 235] | A (the compound was tested and at least 50 percent mortality was observed) | A (the compound was tested and at least 50 percent mortality was observed) | B (either (1) the compound was tested and less than 50 percent mortality was observed or (2) the compound was not tested) |  | 
CCCO[C@@H]1[C@@H](OC)[C@H](C)O[C@@H](OC(=O)Nc2ccc(-c3ncc(-c4ccc(OC(F)(F)F)cc4)cn3)cc2)[C@@H]1OC [Compound 236] | B (either (1) the compound was tested and less than 50 percent mortality was observed or (2) the compound was not tested) | B (either (1) the compound was tested and less than 50 percent mortality was observed or (2) the compound was not tested) | A (the compound was tested and at least 50 percent mortality was observed) |  | 
CCO[C@@H]1[C@@H](OC)[C@H](C)O[C@@H](OC(=O)Nc2ccc(-c3nncc(-c4ccc(OC(F)(F)F)cc4)n3)cc2)[C@@H]1OC [Compound 237] | B (either (1) the compound was tested and less than 50 percent mortality was observed or (2) the compound was not tested) | B (either (1) the compound was tested and less than 50 percent mortality was observed or (2) the compound was not tested) | A (the compound was tested and at least 50 percent mortality was observed) |  | 
CCO[C@@H]1[C@@H](OC)[C@H](C)O[C@@H](OC(=O)Nc2ccc(-c3cnnc(-c4ccc(OC(F)(F)F)cc4)n3)cc2)[C@@H]1OC [Compound 238] | B (either (1) the compound was tested and less than 50 percent mortality was observed or (2) the compound was not tested) | B (either (1) the compound was tested and less than 50 percent mortality was observed or (2) the compound was not tested) | A (the compound was tested and at least 50 percent mortality was observed) |  | 
CCO[C@@H]1[C@@H](OC)[C@H](C)O[C@@H](OC(=O)Nc2ccc(-c3ccc(-c4ccc(OC(F)(F)F)cc4)cn3)cc2)[C@@H]1OC [Compound 239] | B (either (1) the compound was tested and less than 50 percent mortality was observed or (2) the compound was not tested) | B (either (1) the compound was tested and less than 50 percent mortality was observed or (2) the compound was not tested) | B (either (1) the compound was tested and less than 50 percent mortality was observed or (2) the compound was not tested) |  | 
CCO[C@@H]1[C@@H](OC)[C@H](C)O[C@@H](OC(=O)Nc2ccc(-c3noc(-c4ccc(OC(F)(F)F)cc4)n3)cc2)[C@@H]1OC [Compound 240] | A (the compound was tested and at least 50 percent mortality was observed) | A (the compound was tested and at least 50 percent mortality was observed) | A (the compound was tested and at least 50 percent mortality was observed) |  | 
CCO[C@@H]1[C@@H](OC)[C@H](C)O[C@@H](OC(=O)Nc2ccc(N3CCN(c4ccc(OC(F)(F)F)cc4)CC3)cc2)[C@@H]1OC [Compound 241] | B (either (1) the compound was tested and less than 50 percent mortality was observed or (2) the compound was not tested) | B (either (1) the compound was tested and less than 50 percent mortality was observed or (2) the compound was not tested) | B (either (1) the compound was tested and less than 50 percent mortality was observed or (2) the compound was not tested) |  | 
CCO[C@@H]1[C@@H](OC)[C@H](C)O[C@@H](OC(=O)Nc2ccc(N3CC(=O)N(c4ccc(OC(F)(F)F)cc4)CC3=O)cc2)[C@@H]1OC [Compound 242] | B (either (1) the compound was tested and less than 50 percent mortality was observed or (2) the compound was not tested) | B (either (1) the compound was tested and less than 50 percent mortality was observed or (2) the compound was not tested) | A (the compound was tested and at least 50 percent mortality was observed) |  | 

Reference: patent publication US8178658B2 (Dow AgroSciences, LLC, priority 2008, dated 2012)
